Source: patent US20250195553A1, “Use of Genipin-1-B-D-Gentiobioside in Preparation of Drug” (Guizhou Bailing Group Pharmaceutical Co., Ltd., priority 2023, published 2025)
Where two headings read alike, the source gives them in different places.

Columns and labels:
SARS-CoV-2 = assay: Virus titer in lung tissue homogenates of SARS-CoV-2 infected mice (TCID50 on VERO E6 cells); type: in vivo, hACE2 transgenic C57BL/6 mice
Procedure: 2.1 Grouping and Drug Administration: hACE2 transgenic C57BL/6 mice were divided into four groups, namely the blank control group, the SARS-CoV-2 infection group, the Genipin-1-β-D-gentiobioside (37.5 mg/kg) treatment group, and the Genipin-1-β-D-gentiobioside (75 mg/kg) treatment group, with 8 mice in each group. Except for the normal group, which received intranasal administration of Phosphate Buffered Saline (PBS), the other groups were infected with 10^4 Plaque Forming Unit (PFU) of Severe Acute Respiratory Syndrome Coronavirus 2 (SARS-CoV-2) virus via intranasal instillation. Two hours' post-infection, the treatment groups received intraperitoneal injections of the drug once daily for 5 consecutive days. Mouse deaths were recorded daily after infection, and the 5-day mortality rate was calculated. At the end of the experiment, the lung tissues were collected and homogenized for virus titer detection. […]
The well-grown VERO E6 cells were inoculated into a 96-well plate at a density of 1×10^4 cells per well and cultured for another 24 hours. […] The number of wells showing CPE at each concentration gradient was recorded, and the Tissue Culture Infectious Dose 50% (TCID50) value for VERO E6 cells was calculated.

[1] = system: Human Coronavirus 229E (HCoV-229E); type: in vivo
[2] = system: Human Coronavirus OC43 (HCoV-OC43); type: in vivo; settings: 4 days
[3] = system: Mycoplasma Pneumoniae (MP); assay: Mycoplasma pneumoniae-infected mouse pneumonia model: lung index; type: in vivo, BALB/C mice; design: First Batch Inhibition Rate: unit not given here; settings: 4 days
[4] = system: Mycoplasma Pneumoniae (MP); assay: Inflammatory factors in lung tissue of MP-infected mice (ELISA); type: in vivo, BALB/C mice; settings: 4 days
Procedure: […] Each group consisted of 10 mice, with an equal number of males and females. Except for the normal control group, all mice were lightly anesthetized with isoflurane and infected intranasally with Mycoplasma Pneumoniae (50 μl per mouse) for three consecutive days. On the day of infection, each treatment group received nebulized medication once daily for four consecutive days, while the normal control group and model control group received nebulized saline under the same conditions. On the fifth day, the mice were weighed, sacrificed by cervical dislocation, and their lung tissues were dissected, weighed, and used to calculate the lung index and lung index inhibition rate; measure the levels of inflammatory factors in the lung tissue; measure the serum CRP levels; and conduct pathological examinations of the lung tissue. The results were statistically analyzed using the t-test for intergroup comparisons.
(1) Sample Collection and Storage: Tissue Homogenate Samples: After weighing, lung tissues were collected from 8 mice in each group and stored at −80° C. The MP Fastprep-24 5G Rapid Sample Preparation System was used to homogenize the tissues, followed by centrifugation at […] and 3000 r/min for 10 minutes using a low-temperature high-speed centrifuge. The supernatant was then aspirated, aliquoted, and stored at −80° C. for future use, avoiding repeated freeze-thaw cycles.
(2) The microplate, which had been equilibrated to room temperature, was removed from the sealed bag. Different concentrations of standards were added to the corresponding wells, with 50 μL per well. For experimental samples, 10 μL of sample was added to each well, followed by 40 μL of diluent. Except for the blank wells, 100 μL of HRP (Horseradish Peroxidase) was added to each well. The reaction wells were sealed with sealing tape and incubated at 37° C. for 1 hour. The plate was then washed with wash buffer four times. After the final wash, the plate was inverted and all residual liquid was patted dry on absorbent paper. 50 μL of both Substrate A and Substrate B were added to each well. The reaction wells were then sealed with sealing tape and incubated at 37° C. for 15 minutes. After that, 50 μL of stop solution was added to each well, and the absorbance at 450 nm was measured using a microplate reader within 15 minutes. The results were then calculated.

## COC(=O)C1=CO[C@@H](O[C@@H]2O[C@H](CO[C@@H]3O[C@H](CO)[C@@H](O)[C@H](O)[C@H]3O)[C@@H](O)[C@H](O)[C@H]2O)[C@@H]2C(CO)=CC[C@H]12 [Genipin-1-β-D-gentiobioside]
SARS-CoV-2; 37.5 mg/kg, P<0.05
  Virus titer in the lung tissue vs model control group: significantly reduced the virus titer
SARS-CoV-2; 75 mg/kg, P<0.01
  Virus titer in the lung tissue vs model control group: significantly reduced the virus titer
[1]; 37.5 mg/kg/d i.v. 4 days
  Inhibition Rate (lung index): 75.12%
  Lung Index: 0.95 ± 0.11 g lung weight × 100 g/body weight
[1]; 75 mg/kg/d i.v. 4 days
  Inhibition Rate (lung index): 71.04%
  Lung Index: 0.96 ± 0.12 g lung weight × 100 g/body weight
[1]; 150 mg/kg/d i.v. 4 days
  Inhibition Rate (lung index): 99.06%
  Lung Index: 0.89 ± 0.06 g lung weight × 100 g/body weight
[2]; 9.375 mg/ml inhalation 25 min
  Inhibition Rate (lung index): 49.42%
  Lung Index: 0.79 ± 0.09 g lung weight × 100 g/body weight
[2]; 18.75 mg/ml inhalation 25 min
  Inhibition Rate (lung index): 75.73%
  Lung Index: 0.76 ± 0.04 g lung weight × 100 g/body weight
[2]; 37.5 mg/ml inhalation 25 min
  Inhibition Rate (lung index): 90.30%
  Lung Index: 0.74 ± 0.08 g lung weight × 100 g/body weight
[2]; 75 mg/ml inhalation 25 min
  Inhibition Rate (lung index): 102.88%
  Lung Index: 0.72 ± 0.05 g lung weight × 100 g/body weight
[3]; 37.5 mg/ml inhalation 15 min
  First Batch Inhibition Rate: 73.01
  First Batch Lung Index: 0.76 ± 0.09
  Second Batch Inhibition Rate: 56.34
  Second Batch Lung Index: 0.68 ± 0.08
[3]; 75 mg/ml inhalation 15 min
  First Batch Inhibition Rate: 93.06
  First Batch Lung Index: 0.72 ± 0.05
  Second Batch Inhibition Rate: 64.09
  Second Batch Lung Index: 0.67 ± 0.07
[4]; 37.5 mg/ml inhalation
  Inflammatory Factor Levels in Lung Tissue IL-1β: 147.59 ± 41.87 pg/mL
  Inflammatory Factor Levels in Lung Tissue IL-6: 150.92 ± 7.65 pg/mL
  Inflammatory Factor Levels in Lung Tissue TNF-α: 248.53 ± 93.97 pg/mL
[4]; 75 mg/ml inhalation
  Inflammatory Factor Levels in Lung Tissue IL-1β: 148.31 ± 10.97 pg/mL
  Inflammatory Factor Levels in Lung Tissue IL-6: 163.92 ± 8.54 pg/mL
  Inflammatory Factor Levels in Lung Tissue TNF-α: 312.79 ± 81.52 pg/mL
